# Reference: article PMC12841663, “Antiprotozoal Potential of Cultivated Geranium macrorrhizum Against Giardia duodenalis, Trichomonas gallinae and Leishmania infantum” (International Journal of Molecular Sciences, 2026)
# Entries after “also recorded” stand apart in the source; their conditions may differ.
# Legend:
# [1] = tested on: G. duodenalis trophozoites; experiment: Anti-Giardia activity assay (MTT viability); type: cell-based; conditions: pure compounds
# Protocol: Anti-Giardia (AG) activity assays were conducted on G. duodenalis trophozoites from the ATCC® 30957 strain (assemblage A), using flat-bottom microwell plates in quadruplicate. […] Incubation was carried out for 24 h at 37 °C. EOs and pure compounds were solved in DMSO (Sigma, Madrid, Spain) (<1% final concentration). […] Trophozoites/promastigotes viability was assessed using the modified MTT colorimetric assay, as described previously in the literature, with results further validated by microscopic examination. The plate was analyzed in a spectrophotometer at a wavelength of 570 nm. The percentage of antiparasitic activity was calculated as growth inhibition, using the following formula: % AT = 100 - [(Ap - Ab) ÷ (Ac - Ab)] × 100, where Ap is the absorbance of the tested product, Ab the absorbance of the blank and Ac the absorbance of the control wells (culture without treatment). […] Metronidazole (Acros Organics, Madrid, Spain) served as a reference compound for anti-Giardia activity and Anti-Trichomonas activity and amphotericin B for anti-Leishmania activity. Data was analyzed using STATGRAPHICS Centurion XIX ([…].com) (Statgraphics Technologies, Inc., The Plains, VA, USA). The mammalian cells and trophozoites viability were tested with each compound in a dose-response experiment to calculate their relative potency (CC50 or IC50 value, respectively).
# [2] = Cytotoxicity of pure compounds on Vero cells (MTT); type: cell-based; conditions: African green monkey
# Protocol: African green monkey kidney cells (Vero cells) were maintained in Dulbecco’s modified Eagle’s minimal essential medium (DMEM) (Thermo Fisher Scientific, Waltham, MA, USA) supplemented with 10% FBS and 1% Pen-Strep at 37 °C under a humidified atmosphere of 5% CO2/95% air.
# Cells seeded in 96-well flat-bottom microplates with 100 μL medium per well (initial densities 10^4 cells per well) were exposed for 48 h to serial dilutions (100, 75, 50, 25, 10 and 1 µg/mL) of the tested compounds in DMSO (<1% final concentration). Cell viability was analyzed by the MTT colorimetric assay method, and the purple-colored formazan precipitate was dissolved with 100 μL of DMSO [23].
# Data was analyzed using STATGRAPHICS Centurion XIX (https://www.statgraphics.com) (Statgraphics Technologies, Inc., The Plains, VA, USA). The mammalian cells and trophozoites viability were tested with each compound in a dose–response experiment to calculate their relative potency (CC50 or IC50 value, respectively). IC50 (μg/mL) expresses the dose of EOs, extracts or pure compounds needed to produce 50% mortality of trophozoites, while CC50 (μg/mL) expresses the dose of compounds necessary to produce 50% mortality of Vero cells.
# [3] = tested on: G. duodenalis trophozoites; experiment: Morphological evaluation by light microscopy (Diff-Quik), G. duodenalis; type: cell-based, Giardia duodenalis; conditions: germacrone 100 µg/mL, metronidazole 100 µg/mL; 0.5 and 48 h; control DMSO 1%
# Protocol: Each well contained 435 μL of culture medium and 15 μL of the test or control compounds at the above-mentioned concentrations. The chamber included: two wells for growth control (0.5 h, 48 h), two for germacrone (0.5 h, 48 h), and two for metronidazole (0.5 h, 48 h). Incubation was performed at 37 °C. At each time point, the medium was removed, wells were dried, fixed, and stained with Diff-Quik. Morphological changes were analyzed using light microscopy. Experiments were performed as independent biological replicates on different plates, and one Diff-Quik stained smear was obtained per condition and time point per biological replicate. For morphometric analysis, a total of 30 trophozoites per condition and time point were measured across the independent biological replicates and were selected by consecutive sampling during a predefined serpentine (zig-zag) scan across the preparation. Up to two eligible trophozoites per field (intact, well-focused and non-overlapping) were measured in sequential fields until n = 30 was reached, avoiding subjective selection of “representative” cells. Overlapping, partially visible, out-of-focus, edge-of-field, or debris-obscured trophozoites were excluded a priori. Trophozoites were photographed using a researcher's mobile phone mounted to the microscope ocular. Calibration was performed at the same magnification using a stage micrometre and applied in ImageJ v. 1.54d. One Diff-Quik stained smear was obtained per condition/time point per biological replicate Cell length, cell width, cell surface, nuclear length, nuclear width, axoneme (only Giardia), and length of axostyle (only T. gallinae) were measured with ImageJ software, and the data were recorded in an Excel database for statistical analysis. The Shapiro-Wilk test was used to assess the normality of the morphological variables. When data followed a normal distribution, Student's t-test was applied; otherwise, non-parametric tests, such as the Mann-Whitney U test, was used. Values of p < 0.05 were considered significant. For the morphological analysis, the mean, standard deviation, median, and interquartile range were calculated using SPSS version 20 (IBM Corp., Armonk, NY, USA).
# T. gallinae trophozoites [4] = experiment: Morphological evaluation by light microscopy (Diff-Quik), T. gallinae; type: cell-based, Trichomonas gallinae; conditions: germacrone 100 µg/mL, metronidazole 10 µg/mL; 0.5 and 48 h; control DMSO 1%
# Source text: At each time point, quadruplicates were assigned per condition: growth control, germacrone, and the corresponding positive control (metronidazole or amphotericin B). For microscopy, quadruplicate wells corresponding to the same condition/time point were pooled prior to centrifugation to obtain sufficient biomass and a representative pellet for smear preparation. Pooled samples per condition/time point were centrifuged, resuspended in FBS and spread onto microscope slides. Once dried, samples were fixed and stained with Diff-Quik (Medion Diagnostic AG, […], Switzerland) following the manufacturer's instructions. Additionally, three wells per condition (triplicates) were used for the MTT assay, with absorbance measured by spectrophotometry after 48 h. Morphological changes were analyzed using light microscopy. Experiments were performed as independent biological replicates on different plates, and one Diff-Quik stained smear was obtained per condition and time point per biological replicate. For morphometric analysis, a total of 30 trophozoites per condition and time point were measured across the independent biological replicates and were selected by consecutive sampling during a predefined serpentine (zig-zag) scan across the preparation. Up to two eligible trophozoites per field (intact, well-focused and non-overlapping) were measured in sequential fields until n = 30 was reached, avoiding subjective selection of “representative” cells. Overlapping, partially visible, out-of-focus, edge-of-field, or debris-obscured trophozoites were excluded a priori. Trophozoites were photographed using a researcher's mobile phone mounted to the microscope ocular. Calibration was performed at the same magnification using a stage micrometre and applied in ImageJ v. 1.54d. One Diff-Quik stained smear was obtained per condition/time point per biological replicate Cell length, cell width, cell surface, nuclear length, nuclear width, axoneme (only Giardia), and length of axostyle (only T. gallinae) were measured with ImageJ software, and the data were recorded in an Excel database for statistical analysis. The Shapiro-Wilk test was used to assess the normality of the morphological variables. When data followed a normal distribution, Student's t-test was applied; otherwise, non-parametric tests, such as the Mann-Whitney U test, was used. Values of p < 0.05 were considered significant. For the morphological analysis, the mean, standard deviation, median, and interquartile range were calculated using SPSS version 20 (IBM Corp., Armonk, NY, USA).
# T. gallinae trophozoites [5] = tested on: T. gallinae trophozoites; parameters: method as in PMID 36157195; conditions: cited from earlier work
smiles,measurement,setting,value
"Cc1ncc([N+](=O)[O-])n1CCO [Met, metronidazole, reference compound]",IC50,[1],4.4 µg/mL
same,CC50 at 48 h,[2],> 100 µg/mL
same,axoneme length vs control,[3],decreased at 0.5 h; also recorded: continued to decrease
same,cell length vs control,[3],significant reductions at 30 min
same,cell surface area vs control,[3],reduction in cell surface area relative to the control within 0.5 h
same,cell width vs control,[3],decrease in cell width at 0.5 h
same,nuclear length (left and right) vs control,[3],No effects
same,nuclear width vs control,[3],"reduction at 0.5 h, followed by an increase at 48 h"
same,axostyle length vs control,T. gallinae trophozoites [4],decreased at 0.5 h; also recorded: undetectable in most metronidazole-treated trophozoites by 48 h
same,cell length vs control,T. gallinae trophozoites [4],"initial increase at 0.5 h, followed by a reduction at 48 h"
same,cell surface area vs control,T. gallinae trophozoites [4],significant reduction only at 48 h
same,nuclear length vs control,T. gallinae trophozoites [4],decreased with metronidazole
same,nuclear width vs control,T. gallinae trophozoites [4],diminished at 0.5 h; also recorded: further decreased
same,T. gallinae IC50,T. gallinae trophozoites [5],1.0 (0.8–1.1) [23] µg/mL
